Patent publication US9295259B2, “Fungicidal substituted 1-{2-[2-halo-4-(4-halogen-phenoxy)-phenyl]-2-alkoxy-3-methyl-butyl}-1H [1,2,4]triazole compounds” (BASF SE, priority 2011, dated 2016)

What was measured:
Phakopsora pachyrhizi = experiment: Protective control of soy bean rust on soy beans (Phakpa P2), green house; type: in vivo, Phakopsora pachyrhizi on soy bean; settings: 16 ppm spray, inoculated 2 days after treatment, % diseased leaf area, untreated control 80
Septoria tritici = experiment: Activity against leaf blotch on wheat caused by Septoria tritici (Septtr), microtest; type: cell-based; settings: relative growth vs compound-free control (100%), 405 nm, 7 days after inoculation

| SMILES | Disease (%) at 16 ppm Phakpa P2 (Phakopsora pachyrhizi) | Growth (%) at 0.000125 ppm Septtr (Septoria tritici) |
| --- | --- | --- |
| COC(C)(Cn1cncn1)c1ccc(Oc2ccc(Cl)cc2)cc1Cl (stereo not shown) [EP 0126430] | 60% | 63% |
| CCC(Cn1cncn1)(OC)c1ccc(Oc2ccc(Cl)cc2)cc1Cl (stereo not shown) [U.S. Pat. No. 4,940,720] | 60% | 53% |
